In one assay the test system is Stellaria media (STEME). Put plainly: Herbicidal greenhouse screening, post-emergence. The assay is classed as in vivo. The note with it: visual, 3 weeks after spraying. The protocol:
(§1) Seeds of mono‐ and dicotyledonous weed plants were sown in plastic pots of 7 cm diameter filled with a clayey silt soil substrate. The plants were maintained for the preparatory phase of germination and initial growth in the greenhouse under optimum growth conditions. Phosphonothrixin (1) was prepared for application as an emulsion concentrate and diluted together with 0.2% agrotin (a polyfunctional non‐ionic additive) in water corresponding to a spray volume of approximately 600 L ha^−1. At a growth stage of 2 to 4 true leaves the test plants were sprayed and then placed in the greenhouse for 3 weeks under optimum growth conditions. Subsequently, the effect of phosphonothrixin (1) was assessed visually relative to the untreated controls resulting in herbicidal effects (%) ranging from 0% (no effect = untreated control) to 100% (complete control = died‐off ).

Assay [1] has as its system Pharbitis purpurea (PHBPU). The experiment in a line: Herbicidal greenhouse screening, post-emergence. The assay is classed as in vivo. The note with it: visual, 3 weeks after spraying. The protocol:
as §1

The next assay has as its system Setaria viridis (SETVI). Put plainly: Herbicidal greenhouse screening, post-emergence. The assay is classed as in vivo. Conditions: visual, 3 weeks after spraying. The protocol:
as §1

The test system of assay [2] is Polygonum convolvulus (POLCO). The experiment in a line: Herbicidal greenhouse screening, post-emergence. The note with it: visual, 3 weeks after spraying. The assay is classed as in vivo. The method, then:
as §1

In another assay the test system is Lemna gibba. Put plainly: Lemna gibba growth assay. The note with it: 100 μM phosphonothrixin; 7 days. The assay is classed as in vivo. The protocol: Growth experiments were performed in sterile 6‐well cell culture plates and were initiated by transferring four Lemna gibba fronds per well to 5 mL of K‐medium[22] pH 4.8 containing 1% (w/v) sucrose and a selected concentration of phosphonothrixin (1) and riboflavin determined from previous experiments. The cell culture plates were incubated for 7 days in a growth cabinet at 22 °C and a continuous photon flux density of 75 μE/m^2s.

In assay [3] the test system is gramineous and broadleaf weeds. Set-up: method as in PMID 7490218, PMID 7490219. Conditions: cited from earlier work.

On to `CC(=O)C(O)(CO)CP(=O)(O)O` (centres unmarked) [phosphonothrixin], for which the “herbicidal effect rating, post-emergence” value in the assay on Stellaria media (STEME) (80 g/ha) is 3 (‘3’ = 60–79% inhibition); in the assay with Stellaria media (STEME) (320 g/ha), 3 (‘3’ = 60–79% inhibition); with Stellaria media (STEME) (1280 g/ha), 3 (‘3’ = 60–79% inhibition); in the assay with Stellaria media (STEME) (5120 g/ha) it was 4 (‘4’ = 80–90% inhibition); in assay [1] (80 g/ha), 4 (‘4’ = 80–90% inhibition); in assay [1] (320 g/ha), 4 (‘4’ = 80–90% inhibition). For the same compound, the “herbicidal effect rating, post-emergence” value (in assay [1] (1280 g/ha); in assay [1] (5120 g/ha); with Setaria viridis (SETVI) (80 g/ha); with Setaria viridis (SETVI) (320 g/ha); in the assay on Setaria viridis (SETVI) (1280 g/ha); in the assay with Setaria viridis (SETVI) (5120 g/ha)) was 4 (‘4’ = 80–90% inhibition) in each case. Also, the “herbicidal effect rating, post-emergence” value is recorded as 1 (‘1’ = 20–39% inhibition) in assay [2] (80 g/ha), 1 (‘1’ = 20–39% inhibition) in assay [2] (320 g/ha), 1 (‘1’ = 20–39% inhibition) in assay [2] (1280 g/ha) and 2 (‘2’ = 40–59% inhibition) in assay [2] (5120 g/ha). The “bleaching of Lemna gibba fronds” value in the assay on Lemna gibba is reported as “strong bleaching of the fronds”. In the assay on Lemna gibba, the “growth of Lemna gibba” value is recorded as “significant growth inhibition”. Moreover, the “effect after foliar application” value in assay [3] was “chlorosis”. The effect on germination result in assay [3] (gramineous and broadleaf weeds) is on record as “significantly inhibited germination”.

The record behind these values is article PMC12268802, “The herbicidal natural product phosphonothrixin is an inhibitor of the riboflavin biosynthetic enzyme L‐3,4‐dihydroxy‐2‐butanone‐4‐phosphate synthase” (Pest Management Science, 2025).
